Assay results published in patent publication US9309198B2, “N-[3-(2-carboxyethyl)phenyl]piperidin-1-ylacetamide derivatives and use thereof as activators of soluble guanylate cyclase” (Bayer Pharma Aktiengesellschaft, priority 2012, dated 2016).
Where a name gives a salt, the structure may show the parent alone.

Assays:
[1] = target: T1, soluble guanylate cyclase (sGC) (Rattus norvegicus, UniProt P20595); assay: Stimulation of sGC enzyme activity (PPi detection, luciferase luminescence); format: biochemical; conditions: for EC50: read-out: EC50 (half-maximal effective concentration), activating action at the sGC enzyme in vitro
T1 construct: made in house
T1 sequence (P20595 1-619): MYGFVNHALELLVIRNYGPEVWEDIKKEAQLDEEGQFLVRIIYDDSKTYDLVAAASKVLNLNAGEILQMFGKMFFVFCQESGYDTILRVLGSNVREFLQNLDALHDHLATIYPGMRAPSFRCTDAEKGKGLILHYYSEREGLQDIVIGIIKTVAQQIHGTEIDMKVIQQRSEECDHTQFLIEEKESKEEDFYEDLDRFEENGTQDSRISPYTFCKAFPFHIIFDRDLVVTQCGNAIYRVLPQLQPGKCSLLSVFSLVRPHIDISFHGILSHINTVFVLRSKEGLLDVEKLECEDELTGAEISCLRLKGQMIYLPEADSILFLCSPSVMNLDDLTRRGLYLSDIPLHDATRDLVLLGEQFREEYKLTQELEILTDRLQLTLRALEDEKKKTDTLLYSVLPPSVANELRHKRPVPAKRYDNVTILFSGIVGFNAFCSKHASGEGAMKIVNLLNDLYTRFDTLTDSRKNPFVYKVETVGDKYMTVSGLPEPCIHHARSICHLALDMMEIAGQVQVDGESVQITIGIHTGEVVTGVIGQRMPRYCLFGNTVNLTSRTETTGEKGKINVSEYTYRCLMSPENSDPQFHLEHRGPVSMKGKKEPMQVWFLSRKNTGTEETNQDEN
T1 sequence (P19686 1-690 partner): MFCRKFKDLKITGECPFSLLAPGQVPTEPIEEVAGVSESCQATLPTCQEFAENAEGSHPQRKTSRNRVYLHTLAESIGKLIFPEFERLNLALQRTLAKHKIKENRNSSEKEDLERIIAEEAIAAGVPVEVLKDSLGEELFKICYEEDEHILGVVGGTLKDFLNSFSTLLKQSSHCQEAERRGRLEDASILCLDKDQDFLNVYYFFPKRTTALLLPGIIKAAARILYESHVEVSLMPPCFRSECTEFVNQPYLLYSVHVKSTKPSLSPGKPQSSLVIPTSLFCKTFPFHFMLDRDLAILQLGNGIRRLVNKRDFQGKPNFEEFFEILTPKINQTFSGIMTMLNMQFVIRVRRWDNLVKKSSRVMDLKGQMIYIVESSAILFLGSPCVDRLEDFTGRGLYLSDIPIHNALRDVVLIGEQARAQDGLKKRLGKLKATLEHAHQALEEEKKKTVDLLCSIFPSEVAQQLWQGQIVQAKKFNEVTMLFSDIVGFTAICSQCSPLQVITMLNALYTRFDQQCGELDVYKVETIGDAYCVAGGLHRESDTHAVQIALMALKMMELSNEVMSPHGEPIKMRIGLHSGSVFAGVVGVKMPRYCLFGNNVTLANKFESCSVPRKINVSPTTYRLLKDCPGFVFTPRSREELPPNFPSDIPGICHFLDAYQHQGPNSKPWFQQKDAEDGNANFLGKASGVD
Method: B-3. Stimulation of sGC Enzyme Activity
Soluble guanylate cyclase (sGC) converts on stimulation GTP into cGMP and pyrophosphate (PPi). PPi is detected with the aid of the assay described below. The signal produced in the assay increases as the reaction progresses and serves as a measure of the sGC enzyme activity under the given stimulation.
To carry out the assay, 29 μl of enzyme solution [0-10 nM soluble guanylate cyclase (prepared according to Hönicka et al., J. Mol. Med. 77, 14-23 (1999)) in 50 mM TEA, 2 mM MgCl2, 0.1% BSA (fraction V), 0.005% Brij®, pH 7.5] are initially introduced into a microplate, and 1 μl of the substance to be tested (as a serially diluted solution in DMSO) is added. The mixture is incubated at room temperature for 10 min. Then 20 μl of detection mix [1.2 nM Firefly Luciferase (Photinus pyralis luciferase, Promega), 29 μM dehydroluciferin (prepared according to Bitler & McElroy, Arch. Biochem. Biophys. 72, 358 (1957)), 122 μM luciferin (Promega), 153 μM ATP (Sigma) and 0.4 mM DTT (Sigma) in 50 mM TEA, 2 mM MgCl2, 0.1% BSA (fraction V), 0.005% Brij®, pH 7.5] are added. The enzyme reaction is started by adding 20 μl of substrate solution [1.25 mM guanosine 5′-triphosphate (Sigma) in 50 mM TEA, 2 mM MgCl2, 0.1% BSA (fraction V), 0.005% Brij®, pH 7.5] and measured continuously in a luminometer. The extent of the stimulation by the substance to be tested can be determined relative to the signal of the unstimulated reaction.
The activation of haem-free guanylate cyclase is examined by addition of 25 μM of 1H-1,2,4-oxadiazolo[4,3-a]quinoxalin-1-one (ODQ) to the enzyme solution and subsequent incubation for 30 minutes and compared to the stimulation of the native enzyme.

[2] = target: T2, recombinant guanylate cyclase reporter cell line (sGC, CHO reporter cell) (Rattus norvegicus, UniProt P20595); assay: Effect on a recombinant guanylate cyclase reporter cell line (CHO reporter cell); format: cell-based
T2 construct: expressed in transfected cells; host or cells: CHO reporter cell line
T2 sequence (P20595 1-619): T1 sequence (P20595 1-619)
T2 sequence (P19686 1-690 partner): T1 sequence (P19686 1-690 partner)
Method: B-2. Effect on a Recombinant Guanylate Cyclase Reporter Cell Line The cellular activity of the compounds according to the invention is determined using a recombinant guanylate cyclase reporter cell line, as described in F. Wunder et al., Anal. Biochem. 339, 104-112 (2005).

Structure (SMILES)	MEC (minimum effective concentration), activating action at the sGC enzyme in vitro [1] [nM]	MEC (minimum effective concentration), sGC-activating activity in the CHO reporter cell in vitro [2] [nM]	EC50 [1] [nM]
CC1CCN([C@@H](C(=O)Nc2cc(CC3(C(=O)O)CC3)ccc2Cl)[C@@H](C)C(F)(F)F)CC1 [Example 51, 1-(4-Chloro-3-{[(2R,3R)-4,4,4-trifluoro-3-methyl-2-(4-methylpiperidin-1-yl)butanoyl]amino}benzyl)cyclopropanecarboxylic acid]	1.2	1	–
CC1CCN([C@@H](C(=O)Nc2cc(C[C@H](C)C(=O)O)ccc2Cl)[C@@H](C)C(F)(F)F)CC1 [Example 27]	10.5	10	210
C[C@H]([C@H](C(=O)Nc1cc(C[C@H](C)C(=O)O)ccc1Cl)N1CCC(C(F)(F)F)CC1)C(F)(F)F [Example 34]	10.5	10	90
CC(C(C(=O)Nc1cc(CC2(C(=O)O)CC2)ccc1F)N1CCCCC1)C(F)(F)F (single isomer, unassigned) [Example 2, 1-(4-fluoro-3-{[4,4,4-trifluoro-3-methyl-2-(piperidin-1-yl)butanoyl]amino}benzyl)cyclopropanecarboxylic acid]	–	20	–
CCC1CCN([C@H](C(=O)Nc2cc(CC3(C(=O)O)CC3)ccc2F)[C@H](C)C(F)(F)F)CC1 (single isomer, unassigned) [Example 38]	–	300	–
COC1CCN(C(C(=O)Nc2cc(CC3(C(=O)O)CC3)ccc2F)C2CCCC2)CC1 (racemic) [Example 52, rac-1-(3-{[Cyclopentyl(4-methoxypiperidin-1-yl)acetyl]amino}-4-fluorobenzyl)cyclopropanecarboxylic acid trifluoroacetate]	–	3000	–
CCC1CCN([C@H](C(=O)Nc2cc(CCC(=O)O)ccc2Cl)[C@H](C)C(F)(F)F)CC1 (single isomer, unassigned) [Example 44]	–	1000	–
C[C@H]([C@H](C(=O)Nc1cc(CCC(=O)O)ccc1Cl)N1CCC(C(F)(F)F)CC1)C(F)(F)F [Example 17]	–	3	–
CC1CCN(C(C(=O)Nc2cc(CCC(=O)O)ccc2Cl)C(C)C(F)(F)F)CC1 (single isomer, unassigned) [Example 13, 3-(4-chloro-3-{[4,4,4-trifluoro-3-methyl-2-(4-methylpiperidin-1-yl)butanoyl]amino}phenyl)propanoic acid]	–	30	–
C[C@H]([C@H](C(=O)Nc1cc(CCC(=O)O)ccc1Cl)N1CCC2(CC1)CC2)C(F)(F)F [Example 19]	–	3	–
C[C@H]([C@H](C(=O)Nc1cc(CCC(=O)O)ccc1F)N1CCC2(CC1)CC2)C(F)(F)F [Example 16]	–	50	–
CC(C(C(=O)Nc1cc(CC2(C(=O)O)CC2)ccc1F)N1CCCCC1)C(F)(F)F (single isomer, unassigned; (+)) [Example 35, (+)-1-(4-Fluoro-3-{[4,4,4-trifluoro-3-methyl-2-(piperidin-1-yl)butanoyl]amino}benzyl)cyclopropanecarboxylic acid]	–	30	–
CC1CCN([C@@H](C(=O)Nc2cc(CCC(=O)O)ccc2Cl)[C@@H](C)C(F)(F)F)CC1 (single isomer, unassigned) [Example 43]	–	10	–
CC1CCN([C@H](C(=O)Nc2cc(CCC(=O)O)ccc2Cl)[C@H](C)C(F)(F)F)CC1 (single isomer, unassigned) [Example 42]	–	300	–
CC1CCN([C@@H](C(=O)Nc2cc(C[C@@H](C)C(=O)O)ccc2Cl)[C@@H](C)C(F)(F)F)CC1 [Example 31]	–	100	–
CC1CCN(C(C(=O)Nc2cc(CCC(=O)O)ccc2F)C(C)C(F)(F)F)CC1.O=C(O)C(F)(F)F (single isomer, unassigned; (+)) [Example 37, (+)-3-(4-Fluoro-3-{[4,4,4-trifluoro-3-methyl-2-(4-methylpiperidin-1-yl)butanoyl]amino}phenyl)propanoic acid trifluoroacetate]	–	200	–
CC1CCN([C@@H](C(=O)Nc2cc(CCC(=O)O)ccc2F)[C@@H](C)C(F)(F)F)CC1 [Example 7]	–	60	–
CCC1CCN(C(C(=O)Nc2cc(CCC(=O)O)ccc2F)C(C)C(F)(F)F)CC1 (centres unmarked) [Example 10]	–	30	–
CC1CCN(C(C(=O)Nc2cc(CCC(=O)O)ccc2F)C(C)C(F)(F)F)CC1 (centres unmarked) [Example 5]	–	30	–
CCC1CCN([C@H](C(=O)Nc2cc(CCC(=O)O)ccc2F)[C@H](C)C(F)(F)F)CC1 (single isomer, unassigned) [Example 40]	–	1000	–
C[C@H]([C@H](C(=O)Nc1cc([C@@H](C)CC(=O)O)ccc1Cl)N1CCC(C(F)(F)F)CC1)C(F)(F)F [Example 23]	–	3	–
CC(C(C(=O)Nc1cc(CC2(C(=O)O)CC2)ccc1F)N1CCCCC1)C(F)(F)F (centres unmarked) [Example 3]	–	60	–
CC1CCN([C@@H](C(=O)Nc2cc([C@@H](C)CC(=O)O)ccc2Cl)[C@@H](C)C(F)(F)F)CC1 (single isomer, unassigned) [Example 49]	–	3	–
C[C@H]([C@H](C(=O)Nc1cc(C[C@H](C)C(=O)O)ccc1F)N1CCC2(CC1)CC2)C(F)(F)F [Example 28]	–	20	–
